From patent US11497813B2, “Bortezomib conjugates and methods using same” (Frank EBETINO et al., priority 2015, dated 2022)
“Also recorded” adds a separate entry of the source.

System: osteoclasts
Assay: Osteoclast formation and bone resorption on bone slices pre-incubated with compound
Assay type: cell-based, mouse
Description: FIG. 5A is a scheme of an exemplary synthesis of compound BP-Btz1. FIG. 5B is a series of images of bone slices pre-incubated with 1 μM BP-Btz1, Btz, or bisphosphonate (BP) overnight. Drug solutions were removed and bone slices were washed with PBS extensively. […] (BM) cells from UB^G76V-GFP mice were cultured on bone slices in the presence of M-CSF and RANKL for 9 days. Top images (a): GFP^+ cells were observed under a fluorescence microscope and GFP signal intensity was quantified. Middle images (b): bone slices were fixed and subjected to TRAP staining for osteoclasts (OCs). OC #/slice were counted. Bottom images (c): cells were removed from slices. Toluidine blue staining was performed and pit areas/slice were counted. FIG. 5C is a series of images of murine BM cells cultured and stained for ALP. FIG. 5D is a series of images of human MSCs cultured and stained for ALP. Murine BM cells and human MSCs were cultured in the OB-inducing medium plus different concentrations of BP-Btz1 or Btz for 4 or 6 days, respectively. Cells were stained for ALP. The ALP^+ areas were measured by Image J. *P<0.05 vs. Btz-treated cells.
As a control, the effects of the non-bioactive bisphosphonate (BP) that would be released in the bone compartment were also studied. […] In a pivotal in vitro study, this BP-Btz1 and Btz were independently incubated with bone slices for 24 hours, after which the bone slices were removed and placed in culture wells with fresh media along with osteoclast precursors. […]
1. […] Following proteasome inhibitor administration, Ub^G76V accumulates and GFP fluorescence is readily apparent. GFP^+ OCs were detected at 4 and 8 hrs after adding Btz to OC cultures, which disappeared at 24 hrs. […] The number and area of OCs and resorption pits are assessed. The appearance, intensity and distribution of GFP^+ cells on bone slices and plastic surrounding bone slices during OC formation is observed and recorded. […] Area of ALP^+ and mineralized bone nodule, and the expression levels of OB marker genes (ALP, osteocalcin, Runx2) are measured. […]

SMILES: CC(C)C[C@H](NC(=O)[C@H](Cc1ccccc1)NC(=O)c1cnccn1)B1OCCN(CCOC(=O)NC(P(=O)(O)O)P(=O)(O)O)CCO1 [BP-Btz1]
- osteoclast function: maintains its bioactivity on inhibition of OCs; also recorded: inhibits osteoclast function
- Formation and activity of osteoclasts on pre-incubated bone slices (bone slices pre-incubated with compound (1 μM, 24 hours), removed, then osteoclast precursors in fresh media): significantly reduced
- anti-osteoclast activity on bone slices (in vitro studies on bone slices, compared with Btz): anti-osteoclast activity equivalent to than Btz itself
